# In US20050142067A1, “Zintrodes, multitrodes and uses thereof” (priority 2003, published 2005):
# “Also recorded” adds a separate entry of the source. Where two headings read alike, the source gives them in different places.
# Key:
# [1] = Spectral characteristics of reporters for CA-based zinc biosensor; type: physicochemical
# Protocol: (§1) Stock solutions of the fluorescent reporter were prepared in alcohol and diluted 1000-fold in the final measuring cuvette. Carbonic anhydrase protein (CA) was “apo-ized” as per a standard procedure (50). Zinc was added to a solution of the CA in the presence of the reporter and the change in fluorescence intensity and wavelength of the reporter were measured on a Spex DM-1B fluorescence spectrophotometer using He—Cd laser excitation.
# [2] = Leakage of reporter through microdialysis membrane; type: physicochemical; settings: microdialysis chamber (sock), HEPES external medium
# Protocol: A solution of DPSA was placed in the “sock” and the fluorescence of DPSA inside the dialysis chamber and in the external HEPES buffer solution was measured (FIG. 4A). The chamber was then filled with 10 μM apoCA and the external solution with […] HEPES buffer and 10 μM free zinc (FIG. 4B). Since the microdialysis membrane is impermeable to apoCA, any zinc that passes through the membrane is then trapped inside upon binding to apoCA. […] For example, if free zinc in the biological medium is 2 nM, then 0.90 nM zinc will be trapped within the “sock.”
# However, DNSA “leaks out” of the membrane. DNSA reporter was covalently bound to amino-CPG beads using a 12 C or a 14 C tether and placed into the microdialysis membrane or “sock”. […] The DNSA-CPG bead system comprises a “molecular tether” means of entrapment (FIG. 7).
# [3] = target: holoCA (Homo sapiens, UniProt P00918); experiment: Binding of fluorescent reporter to holoCA; settings: order of magnitude in words
# Protocol: The measurement is based on a literature method (44, 51). Aliquots of a 1 μM solution of the CA protein are mixed with several concentrations of DPSA, ranging from 1 nM to 10 μM. After 30 minutes of incubation, the fluorescence emission spectrum is measured with excitation at 365 nm and emission at 400-700 nm. Taking the intensity at 560 nm, which is the emission max of an apoCA-DPSA conjugate, at the highest concentration aliquot to represent 99% fractional saturation, and 1% at the lowest concentration aliquot, the fractional saturation is plotted as a function of the DPSA concentration on a logarithmic scale, and the data is fit to a single binding isotherm, e.g. fraction bound=KD/(1+KD) using Kaleidagraph (Synergy Software), or a similar program.
# Because of the nature of the sulfonamide binding as a fourth ligand to the active site, DPSA binds as a 1:1 complex at realistic aliquot concentrations. If the fractional saturation is not near 1.0 at higher DPSA concentration because the DPSA binds more weakly to the variant, the curvature of the isotherm will not reach the peak intensity.
# [4] = target: CA-Zn (holoCA) (Homo sapiens, UniProt P00918); experiment: Screening of fluorescent reporters with CA and zinc (fluorescence intensity)
# Protocol: as §1
# [5] = read-out: Kd for binding zinc; cited from earlier work
# [6] = Fluorescence response to zinc of dye in micropolymer spots on glass slides; settings: dye in polymer on glass slide, HEPES pH ˜7.4, 500 μM Zn^2+
# Protocol: A proprietary micropolymer was obtained from Gary Kiefer of DOW. Two fluorescence sensors were mixed individually with the micropolymer. One was TFLZN which has a Kd of 10 μM for binding zinc and which is strongly hydrophilic. The other was ZP1, which is more lipophilic, binds zinc with a Kd of 0.5 nM, and is very bright with a quantum yield of 0.9. After mixing, the two solutions were spotted onto acid-cleaned glass slides in spots of 2.5 and 10.0 μL and allowed to cure overnight.
# To evaluate the coatings, one microliter of HEPES (50 mM, pH ˜7.4) was put onto one spot on the polymer/probe coatings and a second spot with one microliter of the same HEPES plus 1 microliter of ZnSO4 (final [Zn^2+], 500 μM) was put next to the first spot. Images of the both spots were captured using the exact same camera settings for both spots. […] When the actual fluorescent intensity of the spots was measured using Photoshop, it was observed that the zinc-added spot was from 4-5-fold brighter that the HEPES spot. […] The change in fluorescence was not timed, but in this microscope-measuring system, the change appeared essentially instantaneously, i.e., within the few seconds it took to put the slide back in place, re-focus the microscope, and capture the second image. […] Furthermore, washing the spots with pure HEPES again lowered the fluorescence back to essentially the pre-zinc levels. […]
# [7] = cited from earlier work
# [8] = pZn meter calibration with metal buffer (ZP1); type: binding; settings: 50 μM bicine metal buffer, [ZP1]=100 nM; read-out: KD, fluorescence intensity midpoint
# Protocol: In calibrating the pZn meter using a metal buffer to control free zinc (FIG. 16A), the [ZP1] is <<than the effective [Zn2+ free] because the metal buffer, 50 μM bicine, can supply a large total number of Zn ions, while keeping the concentration of zinc ions fixed. Thus, in this calibration, the fluorescence intensity midpoint is approximately equal to the KD, 0.5 nM where [ZP1]=100 nM. In a second calibration, a ZP1 concentration of 20 nM of zinc, as ZnSO4, is used (FIG. 16B). Because no metal buffer is used and because the ZP1 concentration is much higher than the zinc concentration, this is a stoichiometric or “percent occupancy” titiration in which the fluorescence intensity is simply proportional to the molar ratio, [Zn]:[ZP1}.
# [9] = system: rabbit brain; settings: 1 mM in dialysis fluid, 10 minutes infusion, anesthetized rabbits, dorsal hippocampus
# Protocol: The microdialysis probes were aimed at the dorsal hippocampus in two acutely prepared rabbits, as described above, and the rabbits were anesthetized with isofluorane.
# This caused spermine NONOate to release NO*, some of which presumably passed through the dialysis membrane and into the brain as a reverse dialysis procedure. The infusion lasted 10 minutes.
SMILES,Abs max [1],Emm max [1],Molar ε [1],leakage out of microdialysis membrane [2],binding to holoCA [3],increase of fluorescent yield upon binding to holo-CA [4],Kd [5],fluorescence of zinc-added spot versus HEPES spot [6],quantum yield ([7]; after zinc binding),quantum yield ([7]; before zinc binding),further results
"CN(C)c1cccc2c(S(N)(=O)=O)cccc12 [DNSA, dansylamide]",332 nm,560 nm,4.7 × 10^3 cm^−1M^−1,leaks out,low micromole,6 fold,–,–,–,–,–
"CN(C)c1ccc(-c2cnc(-c3ccc(S(N)(=O)=O)cc3)o2)cc1 [DPSA, dapoxylsulfonamide]",355 nm,605 nm,2.2 × 10^4 cm^−1M^−1,membrane impermeable; also recorded: does not leak out,low picomole,20 fold,–,–,–,–,"absorption λmax [1]: 340 nm; fluorescence intensity ([4]; 1 μM DPSA, alone or with the named CA): 70 units"
COc1cc(NS(=O)(=O)c2ccc(C(=O)O)cc2)c2nc(C)ccc2c1 [TFLZN],–,–,–,–,–,–,10000 nM,~15 fold,–,–,–
"O=C(O)c1ccccc1-c1c2cc(Cl)c(=O)c(CN(Cc3ccccn3)Cc3ccccn3)c-2oc2c(CN(Cc3ccccn3)Cc3ccccn3)c(O)c(Cl)cc12 [ZP1, 9-(o-carboxyphenyl)-2,7-dichloro-4,5-bis[bis(2-pyridylmethyl)-aminomethyl]-6-hydroxy-3-xanthanone]",–,–,–,–,–,–,0.5 nM,4-5 fold,about 0.87,about 0.39,quantum yield ([7]; condition not stated): 0.9; excitation wavelength maximum ([7]; without zinc): 515 nm; excitation wavelength maximum ([7]; zinc bound): 507 nm; Kd [8]: ~0.5 nM
"O=C(O)c1ccccc1-c1c2cc(Cl)c(=O)cc-2oc2c(CNc3ccccc3CN(Cc3ccccn3)Cc3ccccn3)c(O)ccc12 [ZP4, 9-(o-carboxyphenyl)-2-chloro-5-[2-{bis(2-pyridylmethyl)aminomethyl}-N-methylaniline]-6-hydroxy-3-xanthanone]",–,–,–,–,–,–,–,–,about 0.34,about 0.06,pKa value ([7]; relative to Zinpyr 1 and Zinpyr 2): lower
NCCCNCCCCN(CCCN)/[N+]([O-])=N/O [spermine NONOate],–,–,–,–,–,–,–,–,–,–,release of free zinc into dialysate [9]: vigorous release of free zinc
